This assay concerns Candida albicans FP-633. Kind of assay: In vitro antimicrobial activity: MICs in mouse serum by the microdilution method. Format: cell-based. How it is done:
In vitro antimicrobial activity of the object compound of Example 23, 46, 58 and 63 disclosed later was determined by MICS in mouse serum as described below.
The MICs in mouse serum were determined by the microdilution method using ICR mouse serum buffered with 20 mM HEPES buffer (pH 7.3) as a test medium. Inoculum suspension of 10^6 cells/ml were prepared by a hemocytometric procedure and diluted to obtain an inoculum size of approximately 1.0×10^3 cells/ml. Microplates were incubated at 37° C. for 24 hours in 5% CO2. The MICs was defined as the lowest concentrations at which no visible growth was observed.

Each structure is given as a SMILES string. Where two headings read alike, the source gives them in different places. A value given as a limit tells only on which side of the number the result lay.

Regarding `C[C@@H](O)[C@@H]1NC(=O)[C@@H](NC(=O)c2ccc(-c3nnc(-c4ccc(N5CCN([C@H]6CC[C@@H](C)CC6)CC5)nc4)s3)cc2)C[C@@H](O)CNC(=O)[C@@H]2[C@@H](O)[C@@H](C)CN2C(=O)[C@H]([C@H](O)CCN)NC(=O)[C@H]([C@H](O)Cc2ccc(O)c(OCCN)c2)NC(=O)[C@@H]2C[C@@H](O)CN2C1=O` [Example 58], the MIC (FP633, microdilution in ICR mouse serum buffered with 20 mM HEPES (pH 7.3), inoculum approx. 1.0×10^3 cells/ml, 37° C., 24 hours, 5% CO2, lowest concentration with no visible growth, read-out: MIC (μg/ml), Candida albicans FP-633) is less than 0.2 µg/mL. With `CCOCCOc1ccc(-c2ccc(-c3nnc(-c4ccc(C(=O)N[C@H]5C[C@@H](O)CNC(=O)[C@@H]6[C@@H](O)[C@@H](C)CN6C(=O)[C@H]([C@H](O)CCN)NC(=O)[C@H]([C@H](O)Cc6ccc(O)c(OCCCN)c6)NC(=O)[C@@H]6C[C@@H](O)CN6C(=O)[C@H]([C@@H](C)O)NC5=O)cc4)s3)cc2)cc1` [Example 46], the MIC (FP633, 24 h, pH 7.3, read-out: MIC (μg/ml), Candida albicans FP-633) is less than 0.2 µg/mL.

The values above are taken from patent US20050181988A1, “Echinocandin cyclic peptide derivatives” (priority 2002, published 2005).
